Literature values in paper PMC7388056 (Biomacromolecules, 2020).

Test system: integrins

Substance: arginine–glycine–aspartic acid [RGD]
- effectiveness relative to parent proteins, in words: orders-of-magnitude less effective than its parent proteins
